{
  "source": "paper PMC7280144",
  "about": "(Acta Pharmaceutica Sinica. B, 2020)",
  "molecular_target": "T1, ATP-binding cassette subfamily G member 2 (ABCG2) (Homo sapiens, UniProt Q9UNQ0)",
  "T1 sequence (Q9UNQ0 1-655)": "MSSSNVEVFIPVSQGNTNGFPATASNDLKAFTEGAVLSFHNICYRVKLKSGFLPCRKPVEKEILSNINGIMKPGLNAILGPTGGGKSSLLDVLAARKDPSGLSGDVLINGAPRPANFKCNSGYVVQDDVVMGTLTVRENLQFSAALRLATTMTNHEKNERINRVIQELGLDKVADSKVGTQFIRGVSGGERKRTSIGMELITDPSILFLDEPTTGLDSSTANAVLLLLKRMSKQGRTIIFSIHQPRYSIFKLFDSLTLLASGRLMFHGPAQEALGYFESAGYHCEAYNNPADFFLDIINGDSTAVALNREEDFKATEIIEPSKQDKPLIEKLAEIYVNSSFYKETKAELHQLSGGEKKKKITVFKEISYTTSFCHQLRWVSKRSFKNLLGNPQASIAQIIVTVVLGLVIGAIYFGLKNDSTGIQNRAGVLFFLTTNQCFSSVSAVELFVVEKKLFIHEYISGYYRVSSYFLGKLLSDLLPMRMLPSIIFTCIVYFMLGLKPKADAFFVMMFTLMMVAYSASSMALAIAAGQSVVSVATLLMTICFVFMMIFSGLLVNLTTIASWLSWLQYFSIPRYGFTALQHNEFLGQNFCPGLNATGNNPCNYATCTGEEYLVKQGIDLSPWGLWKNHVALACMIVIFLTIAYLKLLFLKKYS",
  "experiment": "competition of […]-IAAP photoaffinity labeling in crude membranes",
  "data": [
    {"compound": "C=CC(=O)Nc1cccc(Nc2nc(Nc3ccc(N4CCN(C(C)=O)CC4)cc3OC)ncc2C(F)(F)F)c1", "note": "[rociletinib]", "values": [
      {"measurement": "competition of [125I]-IAAP photoaffinity labeling in crude membranes; also vanad", "value": "~ 5 μmol/L"}
    ]}
  ]
}
